IC50 cell viability data for 37 compounds are collected here from the supplement of paper PMC6580486.

Bounds are passed on as bounds.

One test has as its system ESX. On the procedure:
(§1)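 60-agent targeted drug screens (Drug Screen V3 on epithelioid sarcoma cultures PCB490-3/4/5, PCB495, EPS cell lines ESX, VA-ES-BJ, FU-EPS-1 and SkMc myoblasts; PPTI screen v2.1 on human UPS PCB197 and canine UPS S1-12). 384-well plates, 72 h, CellTiter-Glo viability; IC50 by Hill curve fit. 10000 nM = no IC50 achieved (top reported value).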

The test system of another test is FU-EPS-1. On the procedure:
as §1

The next test concerns PCB-490-3 (human epithelioid sarcoma primary culture). On the procedure:
as §1

The next test concerns PCB-490-4 (human epithelioid sarcoma primary culture). On the procedure:
as §1

For a further test, the system named is PCB-490-5 (human epithelioid sarcoma primary culture). On the procedure: as §1
A further test deals with PCB-495 (human epithelioid sarcoma primary culture). On the procedure:
as §1

The next test has as its system SkMc. On the procedure:
as §1

Another test relates to VA-ES-BJ. On the procedure: as §1
A further test concerns pcb-00197 (human undifferentiated pleomorphic sarcoma culture). On the procedure:
as §1

A further test relates to s1-12 (canine undifferentiated pleomorphic sarcoma culture). On the procedure:
as §1

Regarding `C=C[C@@]1(C)CC(=O)[C@]2(O)[C@@]3(C)[C@@H](O)CCC(C)(C)[C@@H]3[C@H](O)[C@H](OC(C)=O)[C@@]2(C)O1` [Forskolin], the IC50 cell viability in the test with ESX, in the test on FU-EPS-1, in the test with PCB-490-3, in the test with PCB-490-4, in the test on PCB-490-5 and with PCB-495 was more than 10000 nM each time. Besides, the IC50 cell viability in the test with SkMc and in the test with VA-ES-BJ was more than 10000 nM throughout.
`COc1nc(C)cnc1NS(=O)(=O)c1cccnc1-c1ccc(-c2nnco2)cc1` [zibotentan]: the IC50 cell viability in the test with pcb-00197 and in the test on s1-12 was more than 10000 nM in each case.
With `Nc1cccc2c1CN(C1CCC(=O)NC1=O)C2=O` (stereo unspecified) [Lenalidomide], the IC50 cell viability was more than 10000 nM in the test with pcb-00197 and 2850 nM in the test with s1-12.
The like results for `Cc1nc(Nc2ncc(C(=O)Nc3c(C)cccc3Cl)s2)cc(N2CCN(CCO)CC2)n1` [dasatinib] were, in that order, 140 nM and 860 nM.
For `Oc1c2ccccc2c2c3c(cccc13)N=N2`, the IC50 cell viability in the test with pcb-00197 is more than 10000 nM; in the test on s1-12 it was 1360 nM.
As to `CO[C@H]1C[C@@H]2CC[C@@H](C)[C@@](O)(O2)C(=O)C(=O)N2CCCC[C@H]2C(=O)O[C@H]([C@H](C)C[C@@H]2CC[C@@H](OC(=O)C(C)(CO)CO)[C@H](OC)C2)CC(=O)[C@H](C)/C=C(\C)[C@@H](O)[C@@H](OC)C(=O)[C@H](C)C[C@H](C)/C=C/C=C/C=C/1C` [temsirolimus], the IC50 cell viability with pcb-00197 and in the test on s1-12 was more than 10000 nM in each case.
Take `CN1CCN(CCOc2cc(OC3CCOCC3)c3c(Nc4c(Cl)ccc5c4OCO5)ncnc3c2)CC1` [Saracatinib]: the IC50 cell viability in the test on pcb-00197 was more than 10000 nM; in the test with s1-12, 1510 nM.
For the compound `CCCC(=O)[O-].[Na+]` [sodium butyrate], the IC50 cell viability in the test on pcb-00197 is more than 10000 nM; in the test with s1-12, 1570 nM.
On the same counts, the results for `CC/C(=C(\c1ccccc1)c1ccc(OCCN(C)C)cc1)c1ccccc1` [Tamoxifen] are more than 10000 nM and more than 10000 nM.
Take `CCOc1cc2ncc(C#N)c(Nc3ccc(F)c(Cl)c3)c2cc1NC(=O)/C=C/CN(C)C` [pelitinib]: the IC50 cell viability in the test with pcb-00197 is more than 10000 nM; with s1-12 it was 200 nM.
As for `CC1=C(/C=C/C(C)=C/C=C/C(C)=C/C(=O)O)C(C)(C)CCC1` [retinoic acid], the IC50 cell viability in the test with pcb-00197 is more than 10000 nM; with s1-12 it was 2040 nM.
Consider `C[C@@]1(C(=O)Nc2ccc(F)nc2)CCCN1c1nc(Nc2cc(C3CC3)n[nH]2)c2cccn2n1`, for which the IC50 cell viability is 2350 nM in the test on pcb-00197 and 10 nM in the test with s1-12.
Turning to `NC(=O)c1ccc(-c2nc(-c3ccccn3)c(-c3ccc4c(c3)OCO4)[nH]2)cc1`, the IC50 cell viability with U23674, in the test with pcb-00197 and in the test on s1-12 was more than 10000 nM in each case.
For the compound `COC1=CC(c2cc3ccccc3[nH]2)=N/C1=C\c1[nH]c(C)cc1C` [obatoclax], the IC50 cell viability with pcb-00197 is 210 nM; in the test with s1-12 it was 40 nM.
`CN(C)CC[C@H](CSc1ccccc1)Nc1ccc(S(=O)(=O)NC(=O)c2ccc(N3CCN(Cc4ccccc4-c4ccc(Cl)cc4)CC3)cc2)cc1[N+](=O)[O-]` [ABT 737]: the IC50 cell viability in the test with pcb-00197 was more than 10000 nM; with s1-12, 1060 nM.
For `COc1cc2/c(=N/c3ccc(Br)cc3F)nc[nH]c2cc1OCC1CCN(C)CC1` [Vandetanib], the results for the IC50 cell viability in the test with pcb-00197 and in the test on s1-12 were 1320 nM and 1240 nM, respectively.
In the case of `Cn1cnc2c(F)c(Nc3ccc(Br)cc3Cl)c(C(=O)NOCCO)cc21` [selumetinib], the IC50 cell viability with pcb-00197 was more than 10000 nM; with s1-12, 1550 nM.
For the compound `COc1cc2c(Oc3ccc4[nH]c(C)cc4c3F)ncnc2cc1OCCCN1CCCC1` [cediranib], the IC50 cell viability in the test with pcb-00197 and with s1-12 was more than 10000 nM each time.
For the compound `CCN(CCCOc1ccc2c(Nc3cc(CC(=O)Nc4cccc(F)c4)[nH]n3)ncnc2c1)CCOP(=O)(O)O` [barasertib], the IC50 cell viability in the test with pcb-00197 and in the test on s1-12 was more than 10000 nM throughout.
Turning to `Cc1[nH]c2ccccc2c1CCNCc1ccc(/C=C/C(=O)NO)cc1` [panobinostat], the values for the IC50 cell viability in the test on pcb-00197 and in the test with s1-12 were 1050 nM and 100 nM, respectively.
For the compound `C=C1C[C@@H]2CC[C@@]34C[C@H]5O[C@H]6[C@@H](O3)[C@H]3O[C@H](CC[C@@H]3O[C@H]6[C@H]5O4)CC(=O)C[C@@H]3[C@@H](OC)[C@@H](C[C@H](O)CN)O[C@H]3C[C@H]3O[C@@H](CC[C@@H]1O2)C[C@@H](C)C3=C` [Eribulin], the IC50 cell viability was found to be 10 nM in the test with pcb-00197 and 1310 nM with s1-12.
For the compound `N#CC[C@H](C1CCCC1)n1cc(-c2ncnc3[nH]ccc23)cn1` [ruxolitinib], the IC50 cell viability in the test with pcb-00197 is more than 10000 nM; in the test with s1-12, 6930 nM.
The like results for `Cc1cc(Nc2cc(N3CCN(C)CC3)nc(Sc3ccc(NC(=O)C4CC4)cc3)n2)n[nH]1` [tozasertib] were, in that order, more than 10000 nM and more than 10000 nM.
On to `CS(=O)(=O)CCNCc1ccc(-c2ccc3ncnc(Nc4ccc(OCc5cccc(F)c5)c(Cl)c4)c3c2)o1` [lapatinib], for which the IC50 cell viability with pcb-00197 and in the test with s1-12 was more than 10000 nM in each case.
For the compound `CN1CC[C@H](c2c(O)cc(O)c3c(=O)cc(-c4ccccc4Cl)oc23)[C@H](O)C1` [Alvocidib], the IC50 cell viability in the test on pcb-00197 amounted to 260 nM; with s1-12 it was 10 nM.
Consider `Cn1c(=O)n(-c2ccc(C(C)(C)C#N)cc2)c2c3cc(-c4cnc5ccccc5c4)ccc3ncc21` [BEZ 235], for which the IC50 cell viability with pcb-00197 turned out to be 570 nM; with s1-12, 220 nM.
With `CNC(=O)CN1CCC(Oc2cc3c(Nc4cccc(Cl)c4F)ncnc3cc2OC)CC1` [AZD-8931], the IC50 cell viability in the test on pcb-00197 and in the test with s1-12 was more than 10000 nM each time.
With `C[C@@H](Oc1cc(-c2cnn(C3CCNCC3)c2)cnc1N)c1c(Cl)ccc(F)c1Cl` [crizotinib], the IC50 cell viability amounted to 1530 nM with pcb-00197 and 1180 nM with s1-12.
On to `CCNC(=O)c1noc(-c2cc(C(C)C)c(O)cc2O)c1-c1ccc(CN2CCOCC2)cc1` [AUY922], for which the IC50 cell viability was 400 nM with pcb-00197 and 30 nM with s1-12.
Regarding `Cc1cn(-c2cc(NC(=O)c3ccc(C)c(Nc4nccc(-c5cccnc5)n4)c3)cc(C(F)(F)F)c2)cn1` [Nilotinib], the IC50 cell viability in the test on pcb-00197 and with s1-12 was more than 10000 nM each time.
For `Cc1ccc(Nc2nccc(N(C)c3ccc4c(C)n(C)nc4c3)n2)cc1S(N)(=O)=O` [pazopanib], the IC50 cell viability with pcb-00197 and in the test with s1-12 was more than 10000 nM throughout.
As to `N#Cc1ccc(COC[C@H]2O[C@@H](n3c(NCc4ccc(Cl)c(Cl)c4)nc4c(N)ncnc43)[C@H](O)[C@@H]2O)cc1`, the IC50 cell viability in the test on pcb-00197 and with s1-12 was more than 10000 nM in each case.
For the compound `C[C@]1(c2nc3c(C(N)=O)cccc3[nH]2)CCCN1` [veliparib], the IC50 cell viability in the test on pcb-00197 and with s1-12 was more than 10000 nM each time.
In the case of `CC1=C(/C=C/C(C)=C/C=C/C(C)=C/C(=O)Nc2ccc(O)cc2)C(C)(C)CCC1` [Fenretinide], the IC50 cell viability in the test on pcb-00197 is more than 10000 nM; with s1-12, 1840 nM.
The like results for `CS(=O)(=O)c1ccc(C(=O)Nc2ccc(Cl)c(-c3ccccn3)c2)c(Cl)c1` [vismodegib] were, in that order, more than 10000 nM and 2750 nM.
As to `CN(c1ncccc1CNc1nc(Nc2ccc3c(c2)CC(=O)N3)ncc1C(F)(F)F)S(C)(=O)=O`, the IC50 cell viability in the test on pcb-00197 is 4560 nM; in the test on s1-12 it was 1420 nM.
Regarding `CCCS(=O)(=O)Nc1ccc(F)c(C(=O)c2c[nH]c3ncc(-c4ccc(Cl)cc4)cc23)c1F` [vemurafenib], the IC50 cell viability with pcb-00197 and with s1-12 was more than 10000 nM throughout.
